Experimental findings from paper doi:10.1101/2020.02.26.964882v3 (biorxiv, 2020) are described below.

This test deals with COVID-19 virus M^pro (Severe acute respiratory syndrome coronavirus 2, UniProt P0DTD1). Kind of test: enzymatic inhibition assay. Type of test: biochemical.

Structures are written as SMILES.

As usually defined, the IC50 is the concentration needed to halve the response being measured. A higher IC50 goes with a need for much substance. Turning to `CN(C)CCCSc1ccccc1NC(=O)/C=C/c1ccccc1` [cinanserin], the IC50 was found to be 125 µM.
